The nature of data set [1]: Metabolic stability in mouse liver microsomes. It is filed as in vitro ADME. Particulars: 1 μM test item, 60 minutes, NADPH. How it is done:
(§1) Metabolic stability studies were conducted using mouse, rat, and human liver microsomes. The protocol for the studies with mouse, rat, and human liver microsomes (all from BD Gentest, USA) is provided below. In brief, 0.4 mg protein was preincubated with 2 mM NADPH (cofactor) in phosphate buffer (pH˜7.4) for 15 min at 37° C. and then added with 1 μM test item and incubated further for 60 minutes in triplicate. The reaction mixture was terminated with methanol containing an internal standard and centrifuged further to analyze the test item remaining in the supernatant by LC-MS/MS. The percent parent compound remaining was calculated in comparison with similar samples terminated at 0 minutes.
For orientation: Liver microsomes are vesicles of endoplasmic reticulum, rich in cytochrome P450 enzymes.

Data set [2] is described as follows: Metabolic stability in rat liver microsomes. It is filed as in vitro ADME. The settings on record: 1 μM test item, 60 minutes, NADPH. The protocol: as §1
Data set [3] in a line: Metabolic stability in human liver microsomes. It is filed as in vitro ADME. The settings on record: 1 μM test item, 60 minutes, NADPH. How it is done:
as §1

Data set [4] has as its system AKT phosphorylation in THP-1, HL-60, MOLT-4, RPMI-8226, or DLBCL cells. The experiment in a line: Assay 3: Inhibition of AKT phosphorylation in leukemic cell lines. In kind it is cell-based. The settings on record: 48 hours, Western Blotting. How it is done:
Inhibition of AKT phosphorylation in leukemic cell lines: THP-1, HL-60, MOLT-4, RPMI-8226, or DLBCL cells were incubated with desired concentrations of compound for 48 hours. Cells were lysed and pAKT was determined by Western Blotting. Bands were quantified using ImageJ and normalized to actin.
On the technique in general: In western blotting, separated proteins are transferred to a membrane and probed.

The next data set deals with leukemic cells. The experiment in a line: Assay 5: Apoptosis in leukemic cell lines (in situ Caspase 3 kit). In kind it is cell-based. The settings on record: 24 hrs. How it is done: Apoptosis in leukemic cells was determined using an in situ Caspase 3 kit (Millipore, US) as outlined below: • Seed leukemic cells at a density of 1×10^6 cells/well in a 6 well plate • Add test compound/DMSO at desired concentrations • Incubate the plate for 24 hrs at 37° C. in 5% CO2 incubator • Collect cells in a 2 ml centrifuge tube • Add 1.6 μL of freshly prepared 5× FLICA reagent and mix cells by slightly flicking the tubes • Incubate tubes for 1 hour at 37° C. under 5% CO2 • Add 2 ml of 1× wash buffer to each tube and mix • Centrifuge cells at <400×g for 5 minutes at room temperature. • Carefully remove and discard supernatant, and gently vortex cell pellet to disrupt any cell-to-cell clumping. • Resuspend cell pellet in 300 ul of 1× wash buffer • Place 100 μL of each cell suspension into each of two wells of a black microtiter plate. Avoid creation of bubbles. • Read […] of each microwell using an excitation wavelength of 490 nm and an emission wavelength of 520 nm • Percent increase in caspase-3 activity manifested by an increase in fluorescence compared to the control blank is to be calculated.

Data set [5] concerns pAKT in AML patient bone marrow leukemic cells. The experiment in a line: Assay 6-II: pAKT analysis of AML patient bone marrow sample (pAKT ELISA). In kind it is cell-based, human. The protocol:
6-II: pAKT analysis of AML patient bone marrow sample using pAKT ELISA kit: Mononuclear cells were extracted by the Ficoll method and seeded in plates. The cells were treated by different compounds for 48 hrs before they were analyzed by pAKT ELISA kit following the product protocol. Briefly, 1×10^6 cells were transferred into an ELISA kit well and lyzed with 10 μL 5× Cell Lysis Mix (phospho-AKT 1/2/3 (Ser473) InstantOne™ ELISA Kit, eBioscience, 85-86042). The cells were then incubated with 50 μl antibody cocktail for 1 hr at room temp. on a microplate shaker (˜300 rpm). After incubating with detection reagent, the result was measured using a SpectraMAX Plus microplate spectrophotometer set at 450 nm.
(In general: In an ELISA, binding on a coated surface is turned into a signal by an enzyme label.)

Data set [6] relates to AML patient bone marrow leukemic cells. The experiment in a line: Assay 6-I: Flow cytometry analysis of apoptotic induction in AML patient bone marrow leukemic cells. In kind it is cell-based, human. How it is done: 6-I: Flow cytometry analysis of apoptotic induction in AML patient bone marrow leukemic cells upon compound treatment using Annexin V and 7-AAD staining: Mononuclear cells were extracted by the Ficoll method and seeded in plates. The cells were treated by different compounds for 48 hrs before they were analyzed by flow cytometry. After washing with PBS, 1×10^5 cells were stained by Annexin V-APC and 7-AAD. Annexin V positive staining measures total apoptotic cells, including early and late apoptotic cells. For Annexin V positive cells, 7-AAD negative signal reflects early apoptotic cells.

For data set [7] the test system is unchanged. The experiment in a line: Assay 6-III: Cell proliferation analysis of AML patient bone marrow sample (MTS). In kind it is cell-based, human. The protocol: 6-III: Cell proliferation analysis of AML patient bone marrow sample using MTS assay: Mononuclear cells were extracted by the Ficoll method and seeded in plates. The cells were treated by different compounds for 48 hrs and 72 hrs before they were analyzed by MTS assay following product instruction. Briefly, 20 μL of the MTS solution was added into each well containing the 100 μL cell suspension, followed by incubation for 4 hours at 37° C., in 95% humidity with presence of 5% CO2. The absorbance of 490 nm (A490) was read using SpectraMAX Plus microplate spectrophotometer.

Data set [8] has as its system Human Multiple Myeloma Cells. The experiment in a line: Assay 6a: Screening for anticancer activity in human multiple myeloma cells. Particulars: primary multiple myeloma patient cells. In kind it is cell-based. The protocol: Samples were taken from two patients with newly diagnosed stage II IgG Kappa and stage III IgG Lambd restricted disease. This screening was performed by inducing apoptosis using doses and times determined from the MTT assay. 1-5×10^5 cells were collected by centrifugation. The cells were re-suspended in 500 μl of 1× Binding Buffer. 5 μl of Annexin V-FITC and 5 μl of propidium iodide were added. The cells were incubated at room temperature for 5 minutes in the dark.
Quantification by flow cytometry: Annexin V-FITC binding was analyzed by flow cytometry (Ex=488 nm; Em=530 nm) using FITC signal detector (usually FL1) and PI staining using a phycoerythrin emission signal detector (usually FL2). The results are shown below and in FIG. 1.

The test system of data set [9] is immortalized leukemic cells (B, T, and monocytic cell lines). The experiment in a line: Assay 7: Screening for anticancer activity in various leukemic cell lines (MTT). It is filed as cell-based. Particulars: majority of B, 72-96 h, read-out: concentration for 50% growth inhibition. The protocol:
Proliferation of immortalized leukemic cells representative of various indications was determined by a MTT (3-(4,5-Dimethylthiazol-2-yl)-2,5-diphenyl tetrazolium bromide) assay.

For a further data set, the system named is Primary CLL cells. The experiment in a line: Assay 8: Screening for anticancer activity in human CLL cells. In kind it is cell-based. The protocol:
After 72 hours of incubation, CLL cells were evaluated for cytotoxicity using the colorimetric MTS reagent. Phosphorylated Akt (S473) was measured by flow cytometry after one hour of incubation of test compound and ten minutes of incubation with anti-IgM or anti-IgD. Akt phosphorylation was quantified by median fluorescent intensity (MFI). Of the seven CLL patient samples used for experiments, five had mutated IGHV, five had 13 q deletion or normal cytogenetics determined by fluorescent in situ hybridization, three were ZAP-70 negative, and seven were CD38 negative. IgM expression ranged between 13% and 90%, whereas IgD expression was uniformly elevated.

Data set [10] relates to PI3Kδ signalling in basophils. The experiment in a line: Assay 4: Inhibition of PI3Kδ signalling in basophils from human whole blood (anti-FcεR1 induced CD63 expression). Particulars: read-out: EC50, inhibition of anti-FcεR1 mediated CD63 expression.
Description: PI3Kδ signalling in basophils manifested by an alteration of anti-FcεR1 induced CD63 expression is a useful pharmacodynamic marker determined using the Flow2CAST® kit (Buhlmann Laboratories, Switzerland). Briefly, it involves the following steps: • Mix the anti-coagulated blood sample by inverting the venipuncture tube several times • Prepare fresh and pyrogen-free 3.5 ml polypropylene or polystyrene tubes suitable for Flow Cytometry measurements • Add 49 μl of patient's whole blood to each tube. • Add 1 μl of 10% DMSO (background) or compound (10% DMSO) to the assigned tubes and mix gently. Incubate at room temperature for 15 min • Pipette 50 μl of the Stimulation buffer (background) or anti-FcεRI Ab to each tube • Add 100 μl of Stimulation Buffer to each tube • Mix gently. […] (using an incubator will take about 10 minutes longer incubation time due to less efficient heat transfer) • Add 2 ml pre-warmed (18-28° C.) Lysing Reagent to each tube, mix gently • Incubate for 5-10 minutes at 18-28° C. • Centrifuge the tubes for 5 minutes at 500×g • Decant the supernatant by using blotting paper • Resuspend the cell pellet with 300-800 μl of Wash Buffer • Vortex gently and acquire the data on the flow cytometer within the same day. • Percent CD63 positive cells within the gated basophil population are to be determined in different treatment groups and normalized to vehicle control.

“Also recorded” adds a separate entry of the source.

For `CC(C)Oc1ccc(-c2nn([C@@H](C)c3oc4ccc(F)cc4c(=O)c3-c3cccc(F)c3)c3ncnc(N)c23)cc1F` [Compound B1, (S)-2-(1-(4-amino-3-(3-fluoro-4-isopropoxyphenyl)-1H-pyrazolo[3,4-d]pyrimidin-1-yl)ethyl)-6-fluoro-3-(3-fluorophenyl)-4H-chromen-4-one], in data set [1], the “Metabolic stability in liver microsomes, Mouse (percent parent compound remaining)” value came to 36.6%. The “Metabolic stability in liver microsomes, Rat (percent parent compound remaining)” value in data set [2] was 23.1%. Besides, the “Metabolic stability in liver microsomes, Human (percent parent compound remaining)” value in [3] stood at 74.9%. Also, the inhibition (commonly the percentage by which the read-out fell short of the control) at 1 µM in [4] was 50 to 90%. Also, the Caspase-3 activity entry with leukemic cells is “dose-dependently induced Caspase-3 activity”. The “AKT phosphorylation (dose dependence)” value in [5] is “dose dependent reduction”. In addition, the inhibition at 0.3 µM in data set [5] (Homo sapiens, Bone marrow cell, 0.3 μM, 48 hrs) was greater than 50%. Also, in [6], the “number of apoptotic cells” value is listed as “concomitant increase in the number of apoptotic cells”. Moreover, the “cell viability / proliferation” value in data set [7] is recorded as “dose dependent reduction in proliferation; also recorded: Dose dependent reduction in cell viability”. For the same molecule, the inhibition at 3 µM in data set [8] (Homo sapiens, Multiple myeloma cell, 3.0 μM, read-out: inhibition of PAKT) is greater than 75%. Also, the cell viability entry in data set [8] is listed as “Dose dependent reduction in cell viability”. Further, the IC50 in data set [9] is 500 to 7500 nM. In addition, the “apoptosis (caspase-3+/7AAD+)” value in the data set on Primary CLL cells (48 hours, 0.1 and 25.6 μM) is given as “significantly induced apoptosis”. Besides, the “cytotoxicity (MTS)” value in the data set on Primary CLL cells (72 hours, 0.1 and 25.6 μM) is “significantly induced”. In addition, the “Akt phosphorylation (S473) induced by anti-surface immunoglobulin” value in the data set with Primary CLL cells (one hour compound, anti-IgM or anti-IgD, flow cytometry MFI) is “significantly abrogated this effect and returned Akt phosphorylation to baseline”. Moreover, the EC50 – broadly, the concentration needed to bring the measured effect to its halfway point – in data set [10] was no more than 100 nM.
